# ± gives the expanded uncertainty stated by the source.
# Test: cn = amount concentration of the nth substance listed, in mol/dm3
# Conditions: 298.15 K; 101 kPa; Liquid; Pycnometric method; c1 = 1
row,SMILES,mass density [kg/m3]
1,F[P-](F)(F)(F)(F)F.[Li+] [lithium hexafluorophosphate] + O=C1OCCO1,1400 ± 100
2,O=S(=O)([N-]S(=O)(=O)C(F)(F)F)C(F)(F)F.[Li+] [lithium bis((trifluoromethyl)sulfonyl)amide] + COC(=O)OC,1160 ± 100
3,O=S(=O)([N-]S(=O)(=O)C(F)(F)F)C(F)(F)F.[Li+] [lithium bis((trifluoromethyl)sulfonyl)amide] + O=C1OCCO1,1420 ± 100
4,F[P-](F)(F)(F)(F)F.[Li+] [lithium hexafluorophosphate] + COC(=O)OC,1140 ± 100
5,O=S(=O)([N-]S(=O)(=O)C(F)(F)F)C(F)(F)F.[Li+] [lithium bis((trifluoromethyl)sulfonyl)amide] + CCOC(=O)OCC,1100 ± 100
6,F[P-](F)(F)(F)(F)F.[Li+] [lithium hexafluorophosphate] + CCOC(=O)OC,1090 ± 100
7,F[P-](F)(F)(F)(F)F.[Li+] [lithium hexafluorophosphate] + CCOC(=O)OCC,1050 ± 100

# Same assay, conditions: 298.15 K; 101 kPa; Liquid; Pycnometric method; c2 = 1
row,SMILES,mass density [kg/m3]
1,CCOC(=O)OC [ethyl methyl carbonate] + O=S(=O)([N-]S(=O)(=O)C(F)(F)F)C(F)(F)F.[Li+],1130 ± 100

# Test: not given
# Conditions: 298.15 K; 101.33 kPa; Liquid; Pycnometric method
row,mass density [kg/m3],SMILES
1,1070 ± 100,COC(=O)OC [dimethyl carbonate]
2,970 ± 100,CCOC(=O)OCC [diethyl carbonate]
3,1350 ± 100,O=C1OCCO1 [ethylene carbonate]

row,SMILES,mass density [kg/m3]
1,CCOC(=O)OC [ethyl methyl carbonate],1010 ± 100

# Test: wn = mass fraction of the nth substance listed
# Conditions: 298.15 K; 101 kPa; Liquid; Pycnometric method; w1 = 0.5
row,mass density [kg/m3],SMILES
1,1230 ± 100,O=C1OCCO1 [ethylene carbonate] + COC(=O)OC
2,1090 ± 100,O=C1OCCO1 [ethylene carbonate] + CCOC(=O)OCC

# Same assay, conditions: 298.15 K; 101 kPa; Liquid; Pycnometric method; w2 = 0.5
row,SMILES,mass density [kg/m3]
1,CCOC(=O)OC [ethyl methyl carbonate] + O=C1OCCO1,1190 ± 100

# — the NIST ThermoML archive (doi:10.1016/j.jct.2012.12.025)
